Holding throughout (assay): NCI-60 cell line screen, 48 h
Test [1] has as its system KM12.
In test [2] the test system is NCI-H226.
For test [3], the system named is HT-29.
Test [4] relates to OVCAR-3.
Test [5] deals with RPMI-8226.
Test [6] has as its system BT-549.
The subject of test [7] is HOP-92.
Test [8] deals with CAKI-1.
Test [9] relates to EKVX.
Test [10] deals with A549.
Test [11] relates to CCRF-CEM.
Test [12] deals with SR.
Test [13] deals with Hs-578T.
The subject of test [14] is UACC-257.
The subject of test [15] is NCI-H460.
Test [16] concerns UO-31.
Test [17] relates to SK-MEL-28.
Test [18] relates to DU-145.
For test [19], the system named is PC-3.
Test [20] concerns HCC 2998.

This note sets out measurements from ChEMBL document CHEMBL1201862, “PubChem BioAssay data set” (2004).

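Interpolation was linear, between the two tested concentrations surrounding the appropriate level; five concentrations were tested over 48 hours in 96-well plates. GI50: concentration for 50% inhibition of growth.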 The source made the active and inactive calls. Cut-off read from the data, not from the text of the source: active = GI50 up to about 1.1 µM and inactive = higher. Some results are limits rather than exact numbers.

As to `Cc1ccc(-c2nc(-c3nccc4ccccc34)oc2-c2ccccc2)cc1`, the GI50 in test [1] is 43.1 µM (inactive); in [2] it was > 100 µM (inactive); in test [3] it was 5.64 µM (inactive); in test [4], 56.1 µM (inactive); in test [5], 38.4 µM (inactive); in test [6], > 100 µM (inactive). The GI50 in test [7] was 30.3 µM (inactive); in test [8], 43.3 µM (inactive); in test [9] it was 20.6 µM (inactive); in [10] it was 40.6 µM (inactive); in test [11], 84.1 µM (inactive); in test [12] it was 25.8 µM (inactive). Moreover, the GI50 in [13] was 75 µM (inactive); in test [14] it was 85.3 µM (inactive); in test [15], 26.7 µM (inactive); in test [16], 95.9 µM (inactive); in [17] it was > 100 µM (inactive); in [18], 63.2 µM (inactive). For the same molecule, in test [19], the GI50 is > 100 µM (inactive).
On to `OCCCN=C1CCCCC1`, for which the GI50 in test [1], in test [2], in [3], in test [4], in test [5] and in test [6] was > 100 µM (inactive) each time. Further, the GI50 was > 100 µM (inactive) in [7]; > 100 µM (inactive) in test [8]; > 100 µM (inactive) in test [9]; > 100 µM (inactive) in test [10]; > 100 µM (inactive) in test [12]; 69.8 µM (inactive) in [13]. Moreover, the GI50 in test [14], in [15], in test [16], in [17], in [18] and in test [19] was > 100 µM (inactive) throughout.
Consider `Cn1c(COC(=O)Nc2ccccc2)c(COC(=O)Nc2ccccc2)c2ccc3cc(Cl)c(Cl)cc3c21`, for which the GI50 in test [1] is 10.2 µM (inactive); in test [2] it was 13.4 µM (inactive); in test [3] it was 8.02 µM (inactive); in test [4] it was 11 µM (inactive); in [20], 5.5 µM (inactive); in test [6] it was 2.58 µM (inactive). The GI50 in test [7] was 2.1 µM (inactive); in [8], 1.06 µM (active); in test [9], 15.9 µM (inactive); in [10], 23.3 µM (inactive); in [11], 1.51 µM (inactive); in test [13] it was 5.73 µM (inactive). The GI50 was 8.39 µM (inactive) in [14]; 8.2 µM (inactive) in test [15]; 10.4 µM (inactive) in test [16]; 3.61 µM (inactive) in [17]; 11.3 µM (inactive) in test [18]; 8.05 µM (inactive) in test [19].
Consider `CC(C)=CCC[C@H](C)[C@H]1CC[C@@H](C)c2cc(O)c(C)cc21`, for which the GI50 was 17.3 µM (inactive) in test [1]; 18 µM (inactive) in test [2]; 20.6 µM (inactive) in [3]; 18.8 µM (inactive) in test [4]; 26.1 µM (inactive) in test [5]; 18.9 µM (inactive) in [20]. Also, the GI50 in test [6] was 17.9 µM (inactive); in [7], 16.7 µM (inactive); in test [8], 15.7 µM (inactive); in [9], 17.6 µM (inactive); in [10], 17.1 µM (inactive); in [11], 22.9 µM (inactive). For the same molecule, the GI50 was 19.9 µM (inactive) in test [13]; 17.4 µM (inactive) in test [14]; 18.4 µM (inactive) in test [15]; 14 µM (inactive) in test [16]; 18.5 µM (inactive) in test [17]; 19.5 µM (inactive) in test [18]. The GI50 in test [19] was 17.4 µM (inactive).
Take `CC(=O)Nc1ccc2cc3c(nc2n1)c1cccnc1n3S(=O)(=O)c1ccccc1`: the GI50 in test [1] is > 100 µM (inactive); in test [2], > 100 µM (inactive); in [3], > 100 µM (inactive); in test [4] it was > 100 µM (inactive); in test [5], 19.1 µM (inactive); in [20] it was > 100 µM (inactive). Also, the GI50 in test [6], in test [7], in test [8], in [9], in test [10] and in [11] was > 100 µM (inactive) in each case. Besides, the GI50 in test [12] is 28.3 µM (inactive); in [13] it was > 100 µM (inactive); in test [14], > 100 µM (inactive); in test [15] it was > 100 µM (inactive); in [16] it was 0.195 µM (active); in test [17] it was > 100 µM (inactive). Moreover, in test [19], the GI50 was > 100 µM (inactive).
For `C[C@@H]1OC(=O)C[C@H]2CC(=O)N(CCc3cn(S(=O)(=O)C(F)(F)F)c4ccccc34)C[C@@H]21`, the GI50 in test [1], in test [3], in [4], in test [5], in test [20] and in [6] was > 100 µM (inactive) each time. In addition, the GI50 in test [7], in [8], in [9], in test [10], in test [11] and in [13] was > 100 µM (inactive) throughout. The GI50 in test [14], in test [15], in [16], in [17], in test [18] and in test [19] was > 100 µM (inactive) each time.
Consider `CCOC(=O)c1c(NC(=O)c2ccccc2)sc2c1CCCC2`, for which the GI50 in [1], in test [2], in [3], in test [4], in [5] and in test [6] was > 100 µM (inactive) throughout. Also, the GI50 in [8], in test [9], in test [11], in test [13], in test [14] and in [16] was > 100 µM (inactive) each time. In addition, the GI50 in [17], in [18] and in [19] was > 100 µM (inactive) in each case.
For the molecule `O=C(CSc1nc2ccc(Cl)cc2c(=O)n1-c1ccccc1)N/N=C1\C(=O)Nc2ccc(F)cc21`, the GI50 was 3.13 µM (inactive) in test [1]; 3.5 µM (inactive) in [2]; 2.2 µM (inactive) in [3]; 1.89 µM (inactive) in [4]; 1.77 µM (inactive) in test [5]; 2.69 µM (inactive) in test [20]. Besides, the GI50 in test [6] is 1.85 µM (inactive); in test [7], 2.49 µM (inactive); in [8], 4.81 µM (inactive); in test [9], 3 µM (inactive); in test [10], 2.37 µM (inactive); in test [11] it was 2.7 µM (inactive). For the same molecule, the GI50 was 4.25 µM (inactive) in test [13]; 3.56 µM (inactive) in test [14]; 3.7 µM (inactive) in [15]; 0.189 µM (active) in test [16]; 3.05 µM (inactive) in test [17]; 2.16 µM (inactive) in test [18]. For the same molecule, in test [19], the GI50 was 2.39 µM (inactive).
Take `O=C(n1c(=O)n(-c2ccc([N+](=O)[O-])cc2)c(=O)n1C(=O)C(Cl)(Cl)Cl)C(Cl)(Cl)Cl`: the GI50 in test [1], in test [2], in [3], in [4], in test [5] and in test [20] was > 100 µM (inactive) throughout. Also, the GI50 in test [6], in test [8], in test [9], in test [10], in test [11] and in test [13] was > 100 µM (inactive) throughout. In addition, the GI50 in test [14], in [15], in [16], in [17], in test [18] and in [19] was > 100 µM (inactive) each time.
`O=c1[nH]c(=O)n(C2CC(O)C(CO)O2)cc1OC/C=C/Cc1ccccc1` (centres undefined): the GI50 in [1], in test [2], in [3], in test [4], in test [5] and in [6] was > 100 µM (inactive) each time. The GI50 in test [8], in [9], in [10], in test [11], in test [12] and in test [13] was > 100 µM (inactive) throughout. Further, the GI50 in [14], in test [15], in [16], in test [17], in test [18] and in [19] was > 100 µM (inactive) in each case.
In the case of `COc1cc(C2=NNC(=O)c3ccccc3N2c2nc(-c3cccs3)nc3ccc(Br)cc23)cc(OC)c1OC`, the GI50 in [1] was 4.8 µM (inactive); in test [2] it was 36.1 µM (inactive); in test [3], 7.73 µM (inactive); in test [4] it was 5.4 µM (inactive); in test [5] it was 2.42 µM (inactive); in test [6], 32.8 µM (inactive). Also, the GI50 in test [7] is 4.83 µM (inactive); in test [8], 15.3 µM (inactive); in [9], 13 µM (inactive); in [10] it was 18.6 µM (inactive); in [11], 1.45 µM (inactive); in test [13] it was 5.48 µM (inactive). Further, the GI50 in test [14] is 21.5 µM (inactive); in test [15], 2.91 µM (inactive); in test [16], 16.1 µM (inactive); in test [17], 13.3 µM (inactive); in test [18], 14.7 µM (inactive); in test [19] it was 10.3 µM (inactive).
